A short description of the data set: Parallel artificial membrane permeability assay (PAMPA). Type of data set: in vitro ADME. The settings on record: GIT PAMPA Double Sink. Here is the method:
Simulated intestinal fluid (SIF) was prepared by dissolving 3 mM sodium taurocholate and 0.1% (w/v) pancreatin in phosphate buffer (final pH = 7.0). The solubility of acacetin was measured by adding excessive amounts of acacetin into glass vials containing 1.5 mL of water, pH 7.4 phosphate buffer, SGF, and SIF. […] The samples were centrifuged at 16,000× g for 5 min, and the supernatant was passed through a 0.20-μm syringe filter to remove excess acacetin. Further, the concentration of acacetin in the filtrate was determined using the LC-MS/MS method. […] Finally, the acacetin concentrations in the octanol and water layers were determined using the LC-MS/MS method. […] The PAMPA was conducted using a commercially available PAMPA kit (GIT PAMPA Double Sink; pION Inc., Massachusetts, MA, USA) according to the manufacturer's protocol. The permeability was calculated using pION PAMPA Explorer ver. 3.8 software (pION Inc., Massachusetts, MA, USA).
(In general: In PAMPA a lipid-coated filter parts donor from acceptor wells.)

Broadly, the Papp is the rate of passage across a membrane or cell layer, normalised by area and donor concentration. The low end stands for poor permeation, the high end for ready permeation.

In turn, `CNC(=C[N+](=O)[O-])NCCSCc1ccc(CN(C)C)o1` [ranitidine, reference compound] gave a Papp of 0.411 ×10⁻⁶ cm/s.

The values above are taken from PMC7911516, “Investigation of the Factors Responsible for the Poor Oral Bioavailability of Acacetin in Rats: Physicochemical and Biopharmaceutical Aspects” (Pharmaceutics, 2021).
